“Also recorded” adds a separate entry of the source.
Tests used:
[1] = cited from earlier work
[2] = tested on: hepatocytes from adult mouse livers; experiment: Primary adult mouse hepatocyte culture: expansion of hepatic stem (oval) cells; format: cell-based; conditions: for oval cells in hepatocyte culture: medium supplemented with 10 μM AGN 194310 or TEPA 10 μM, FIG. 1; for growth of cultured hepatocytes and appearance of hepatic stem (oval) cells: primary culture with EGF and HGF, TEPA 10 μM or AGN 194310 10 μM, compared with control cultures without additions
Protocol: Intact livers were harvested from 3 week old VLVC female mice (Harlan Laboratories, Jerusalem, Israel), dissected and washed twice with DMEM (Beit Haemek, Israel), incubated with DMEM in the presence 0.05% collagenase for 30 minutes at 37° C., ground and passed through a 200 μm mesh sieve, yielding individual hepatocytes. Cells were washed twice and viability was ascertained with trypan blue. Cells were plated in collagen-coated, 35 mm tissue culture plates at a density of 4-×10^4 live cells/ml in F12 media (containing 15 mM Hepes, 0.1% glucose, 10 mM sodium bicarbonate, 100 units/ml penicillin-streptomycin, glutamine, 0.5 units/ml insulin, 7.5 m cg/ml hydrocortisone, and 10% fetal bovine serum). Medium was changed after 12 hours, the cells were washed twice with phosphate buffered saline (PBS) and new medium was added. Medium was changed twice a week.
Hepatocytes were also grown in the presence of Epidermal Growth Factor (EGF), Platelet-Derived Growth Factor β chain (PDGF-BB), Fibroblast growth Factors (FGF-4) and Hepatocyte Growth Factor (HGF), at 20-50 ng/ml each, for the entire culturing period according to the method of Schwartz et al. (Schwartz R E, Reyes M, Koodie L, Jiang Y, Blackstad M, Lund T, Lenvik T, Johnson S, Hu W S, Verfaillie C M. Multipotent adult progenitor cells from bone marrow differentiate into functional hepatocyte-like cells. J Clin Invest. 2002; 109 (10): 1291-302). Hepatocytes were also grown in serum free medium according to the method of Runge et al. (Runge D, Runge D M, Jager D, Lubecki K A, Beer Stolz D, Karathanasis S, Kietzmann T, Strom S C, Jungermann K, Fleig W E, Michalopoulos G K. Serum-free, long-term cultures of human hepatocytes: maintenance of cell morphology, transcription factors, and liver-specific functions. Biochem Biophys Res Commun. 2000; 269(1): 46-53).
In all of the above-mentioned hepatocytes culture conditions, cells are grown in the presence or absence of the retinoic acid antagonist AGN 194310 or the transition metal chelator tetraethylenepentamine TEPA) at 10^−5 M.
After a period of 3 weeks, cultures treated with 10^−5 M AGN 194310 or TEPA were detached with 0.25% trypsin, split and replated at a 1:2 ratio. The cells were visualized with Giemsa staining.
Murine hepatocyte cultures supplemented with EGF and HGF were evaluated as primary cultures, or following first and second passages. First passage cultures were grown for 2 weeks, split 1:2 and cells stained 8 days later. Second passage cultures were similarly grown for 2 weeks, split 1:2, and grown for an additional week, then split 1:4 and similarly stained 4 days later.
Hepatocytes and ex-vivo expanded cells were fixed in methanol directly in their cell culture plates and each procedure performed by standard procedures as outlined below.
Ex-vivo expanded cells and hepatocytes were stained with Giemsa stain, according to manufacturer's instructions (Shandon, Pittsburg, Pa.) for 4 minutes at room temperature, washed in buffer solution for 4 minutes, washed 3-4 times with rinse solution and visualized by light microscopy. Nuclei were stained with hematoxylin (Dako, Carpinteria, Calif.).

[3] = tested on: cord-blood-derived, bone marrow-derived, and peripheral blood derived stem and progenitor cells; conditions: grown without a feeder layer; cited from earlier work
[4] = tested on: stem and progenitor hematopoietic cells; conditions: cited from earlier work
[5] = tested on: erythroid progenitor cells, cultured mouse erythroleukemia cells, embryonal stem cells, and hepatocytes in primary hepatocyte culture; conditions: cited from earlier work

persistence of treated hepatocyte cultures in culture ([2]; primary hepatocyte cultures)	SMILES	membrane permeability [1]	oval cells in hepatocyte culture [2]	growth of cultured hepatocytes and appearance of hepatic stem (oval) cells [2]	fraction of CD34+ cells and their long-term clonability [3]	long term ex vivo stem cell proliferation and differentiation [4]	proliferation and differentiation [5]
–	O=c1cc(N2CCOCC2)oc2c(-c3ccccc3)cccc12 [LY294002]	membrane permeable	–	–	–	–	–
at least 3 weeks	NCCNCCNCCNCCN [TEPA, tetraethylenepentamine]	–	abundance of oval cells; also recorded: increase in the proportion of oval cells	clearly induced growth of the cultured hepatocytes, and the appearance of hepatic stem (oval) cells	greatly enhanced the fraction of CD34^+ cell and their long-term clonability	effective promotion of long term ex vivo stem cell proliferation, while inhibiting differentiation	Facilitation of proliferation while inhibiting differentiation
–	CCc1ccc(C2=CC(C)(C)Sc3ccc(C#Cc4ccc(C(=O)O)cc4)cc32)cc1 [AGN 194310]	–	abundance of oval cells	clearly induced growth of the cultured hepatocytes, and the appearance of hepatic stem (oval) cells	–	–	–

Reference: US20070082397A1, “Ex vivo progenitor and stem cell expansion for use in the treatment of disease of endodermally-derived organs” (priority 2003, published 2007)
